# Measurements published in BindingDB's records for doi:10.1021/jm0105833 (Harvard University, 2002).
# pKd: −log10 of the molar value. Numbered stars: 1 amine (or outer) side, 2 acyl side, 3 side chain; on linkers, the order of the positions; unused ones are H or OH. Square brackets hold non-standard residues; d marks the D form. Peptide text beside a SMILES is read from it. Phe(ψ(S)CH(OH)CH2N)Pro = O=C([C@@H]1CCCN1C[C@H](O)[C@H](Cc1ccccc1)N[*:1])[*:2]; Nle = CCCC[C@H](N)C(=O)O; Orn = NCCC[C@H](N)C(=O)O
# Biological target: T1, Thermolysin (Bacillus thermoproteolyticus, UniProt P00800)
# T1 sequence (P00800 whole entry): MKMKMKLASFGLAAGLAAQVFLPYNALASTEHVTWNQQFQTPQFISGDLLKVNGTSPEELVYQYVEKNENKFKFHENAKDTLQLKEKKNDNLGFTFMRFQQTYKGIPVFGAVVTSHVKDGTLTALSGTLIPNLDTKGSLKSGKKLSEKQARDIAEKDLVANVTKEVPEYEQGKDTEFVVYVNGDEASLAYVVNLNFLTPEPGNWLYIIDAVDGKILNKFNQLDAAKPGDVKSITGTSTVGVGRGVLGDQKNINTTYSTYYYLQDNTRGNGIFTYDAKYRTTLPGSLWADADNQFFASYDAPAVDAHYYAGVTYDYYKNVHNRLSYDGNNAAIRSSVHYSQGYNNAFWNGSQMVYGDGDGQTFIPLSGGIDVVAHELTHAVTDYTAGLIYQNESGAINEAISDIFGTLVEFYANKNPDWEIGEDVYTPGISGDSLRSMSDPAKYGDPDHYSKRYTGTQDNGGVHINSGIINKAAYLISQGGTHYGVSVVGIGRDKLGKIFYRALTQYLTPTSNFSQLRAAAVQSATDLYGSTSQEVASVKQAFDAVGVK
# Test: Binding affinity against Thermolysin
row,SMILES,pKd
1,"CC(C)C[C@H](NP(=O)(O)O[C@@H]1O[C@@H](C)[C@H](O)[C@@H](O)[C@H]1O)C(=O)N[C@@H](Cc1c[nH]c2ccccc12)C(=O)O [(S)-2-{(R)-2-[Hydroxy-((2R,3R,4R,5R,6S)-3,4,5-trihydroxy-6-methyl-tetrahydro-pyran-2-yloxy)-phosphorylamino]-4-methyl-pentanoylamino}-3-(1H-indol-3-yl)-propionic acid]",7.55
2,CC(C)C[C@H](N)C(=O)NO [(S)-2-Amino-4-methyl-pentanoic acid hydroxyamide],3.72
3,CC(C)[C@H](N)C(=O)N[C@@H](Cc1c[nH]c2ccccc12)C(=O)O [Val-Trp] (H-Val-Trp-OH),5.91
4,CC(C)C[C@H](NC(CCc1ccccc1)C(=O)O)C(=O)N[C@@H](Cc1c[nH]c2ccccc12)C(=O)O (stereo partly specified),7.13
5,O=[N+]([O-])Nc1ccccc1 [Nitroanilide],6.37
6,CC(C)C[C@H](NP(=O)(O)O)C(N)=O [(P-Leu-NH2) (1-Carbamoyl-3-methyl-butyl)-phosphoramidic acid],5.89

# Biological target: Human immunodeficiency virus type 1 protease (Human immunodeficiency virus 1, UniProt Q72874)
# Test: Affinity for HIV Protease
row,SMILES,pKd
1,CC1(C)S[C@H]([C@H](NC(=O)Cc2ccccc2)C(=O)NCc2ccccc2)N[C@H]1C(=O)N[C@@H](CO)Cc1ccccc1 [GR-126045],8.10
2,CC(C)[C@H](NC(=O)N(C)Cc1ccccn1)C(=O)N[C@@H](Cc1ccccc1)[C@H](O)[C@@H](O)[C@H](Cc1ccccc1)NC(=O)[C@@H](NC(=O)N(C)Cc1ccccn1)C(C)C [JMC51852 Inhibitor PP],10.12
3,CC1(C)SC(C(NC(=O)Cc2ccccc2)C(=O)NCc2ccccc2)NC1C(=O)NC(Cc1ccccc1)C(O)CC(=O)NCC1=NC2C=CC=CC2=N1 (stereo unspecified) [GR-137615],9.69
4,O=C1N(Cc2ccc3ccccc3c2)[C@H](Cc2ccccc2)[C@H](O)[C@@H](O)[C@@H](Cc2ccccc2)N1Cc1ccc2ccccc2c1,9.52
5,"CC(C)[C@H](NC(=O)N(C)Cc1ccccn1)C(=O)N[C@@H](Cc1ccccc1)C[C@@H](O)[C@H](Cc1ccccc1)NC(=O)[C@@H](NC(=O)N(C)Cc1ccccn1)C(C)C [(2S)-N-[(2S,3R,5S)-3-hydroxy-5-[(2S)-3-methyl-2-{[methyl(pyridin-2-ylmethyl)carbamoyl]amino}butanamido]-1,6-diphenylhexan-2-yl]-3-methyl-2-{[methyl(pyridin-2-ylmethyl)carbamoyl]amino}butanamide]",10.46
6,CCCC[C@H](NC(=O)[C@H](CCCC)NC(=O)[C@@H](NC(=O)[C@@H](NC(C)=O)[C@@H](C)O)[C@@H](C)CC)C(=O)N[C@@H](CCCN)C(=O)N[C@@H](CCCN=C(N)N)C(N)=O (Ac-TI[Nle][Nle][Orn]R-NH2),6.11
7,"CC(C)[C@H](NC(=O)N(C)Cc1ccccn1)C(=O)N[C@@H](Cc1ccccc1)[C@@H](O)[C@H](O)[C@H](Cc1ccccc1)NC(=O)[C@@H](NC(=O)N(C)Cc1ccccn1)C(C)C [(2S)-N-[(2S,3R,4R,5S)-3,4-dihydroxy-5-[(2S)-3-methyl-2-{[methyl(pyridin-2-ylmethyl)carbamoyl]amino}butanamido]-1,6-diphenylhexan-2-yl]-3-methyl-2-{[methyl(pyridin-2-ylmethyl)carbamoyl]amino}butanamide]",9.01
8,"CC(C)[C@H](NC(=O)N(C)Cc1ccccn1)C(=O)N[C@@H](Cc1ccccc1)[C@H](O)[C@H](O)[C@H](Cc1ccccc1)NC(=O)[C@@H](NC(=O)N(C)Cc1ccccn1)C(C)C [(2S)-N-[(2S,3R,4S,5S)-3,4-dihydroxy-5-[(2S)-3-methyl-2-{[methyl(pyridin-2-ylmethyl)carbamoyl]amino}butanamido]-1,6-diphenylhexan-2-yl]-3-methyl-2-{[methyl(pyridin-2-ylmethyl)carbamoyl]amino}butanamide]",10.08
9,O=C(N[C@H]1c2ccccc2C[C@H]1O)[C@H](Cc1ccccc1)CC(O)C[C@@H](Cc1ccccc1)C(=O)N[C@H]1c2ccccc2C[C@H]1O [L-700417],9.15
10,CC(C)CN(C[C@@H](O)[C@H](Cc1ccccc1)NC(=O)O[C@H]1CCOC1)S(=O)(=O)c1ccc(N)cc1 [VX-478],9.23
11,C=CO [E1203],8.41
12,CC[C@H](C)[C@H](NC(=O)[C@@H]1CCCN1C[C@H](O)[C@H](Cc1ccccc1)NC(=O)[C@H](CC(N)=O)NC(=O)[C@H](CC(C)C)NC(=O)[C@H](CO)NC(C)=O)C(=O)N[C@H](C(=O)OC)C(C)C (Ac-SLN[Phe(ψ(S)CH(OH)CH2N)Pro]IV-OMe),9.63
13,COC(=O)[C@@H](NC(=O)[C@@H](NC(=O)[C@H](C)N1CCC([C@H](C)NC(=O)[C@H](C)N)=C[C@@H](Cc2ccccc2)C1)C(C)C)C(C)C [SB-203238],6.37

# Biological target: Serine protease 1 (Homo sapiens, UniProt P07477)
# Test: Binding affinity against trypsin
# Chain of Serine protease 1 (P07477 whole entry): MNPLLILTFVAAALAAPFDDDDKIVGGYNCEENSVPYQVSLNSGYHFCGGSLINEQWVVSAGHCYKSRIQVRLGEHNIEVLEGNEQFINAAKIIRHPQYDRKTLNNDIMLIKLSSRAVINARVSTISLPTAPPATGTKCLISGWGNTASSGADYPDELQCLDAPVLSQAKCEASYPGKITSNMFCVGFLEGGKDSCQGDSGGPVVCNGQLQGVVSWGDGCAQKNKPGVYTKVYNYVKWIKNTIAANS
row,SMILES,pKd
1,NCCCCc1ccccc1 [4-Phenyl-butylamine],1.70

# Biological target: T2, Fatty acid-binding protein, intestinal (Homo sapiens, UniProt P12104)
# T2 sequence (P12104 whole entry): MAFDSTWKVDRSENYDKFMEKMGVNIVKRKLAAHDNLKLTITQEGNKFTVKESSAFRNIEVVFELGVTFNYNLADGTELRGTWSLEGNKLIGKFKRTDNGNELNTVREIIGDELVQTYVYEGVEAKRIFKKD
# Test: Binding affinity against Fatty acid-binding protein
row,SMILES,pKd
1,CCCCCCCCCCCCCCCC(=O)O,5.43

# Biological target: T3, Mast cell carboxypeptidase A (Homo sapiens, UniProt P15088)
# T3 sequence (P15088 whole entry): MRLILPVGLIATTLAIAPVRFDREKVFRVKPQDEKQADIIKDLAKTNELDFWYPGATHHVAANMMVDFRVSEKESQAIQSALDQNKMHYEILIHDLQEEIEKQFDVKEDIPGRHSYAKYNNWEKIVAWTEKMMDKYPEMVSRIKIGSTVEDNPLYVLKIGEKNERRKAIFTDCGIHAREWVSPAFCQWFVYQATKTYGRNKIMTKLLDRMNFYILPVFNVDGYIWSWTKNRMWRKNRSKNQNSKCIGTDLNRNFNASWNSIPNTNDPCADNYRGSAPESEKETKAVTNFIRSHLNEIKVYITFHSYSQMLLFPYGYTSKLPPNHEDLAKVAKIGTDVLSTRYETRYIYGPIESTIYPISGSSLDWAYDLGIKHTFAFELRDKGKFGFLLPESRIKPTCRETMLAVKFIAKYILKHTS
# Test: Binding affinity against Carboxypeptidase A
row,SMILES,pKd
1,NCCCC[C@H](NC(=O)CN)C(=O)O [(S)-6-Amino-2-(2-amino-acetylamino)-hexanoic acid] (H-Gly-Lys-OH),3.89

# Biological target: Prothrombin (Homo sapiens, UniProt P00734)
# Test: Binding affinity against thrombin
row,SMILES,pKd
1,N=C(N)NCCC[C@H](NC(=O)[C@@H]1CCCN1C(=O)[C@@H](N)Cc1ccccc1)C(=O)O [5-amino(imino)methylamino-2-[1-[2-amino-3-phenyl-(2S)-propanoyl]-(5S)-dihydro-1H-5-pyrrolylcarboxamido]-(2S)-pentanoic acid],6.24

# Biological target: Purine nucleoside phosphorylase (Homo sapiens) (UniProt P00491)
# Test: Binding affinity against Purine Nucleoside Phosphorylase
# Chain of Purine nucleoside phosphorylase (Homo sapiens) (P00491 whole entry, looked up): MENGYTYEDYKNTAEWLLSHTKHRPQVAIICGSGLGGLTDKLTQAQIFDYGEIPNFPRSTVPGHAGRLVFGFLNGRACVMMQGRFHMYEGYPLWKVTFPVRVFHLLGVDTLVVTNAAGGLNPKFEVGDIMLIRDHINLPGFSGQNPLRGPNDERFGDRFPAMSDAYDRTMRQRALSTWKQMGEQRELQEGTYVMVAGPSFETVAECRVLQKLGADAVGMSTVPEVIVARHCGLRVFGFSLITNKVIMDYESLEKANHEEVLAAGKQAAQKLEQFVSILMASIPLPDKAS
row,SMILES,pKd
1,O=P(O)(O)OP(=O)(O)OC[C@H]1O[C@@H](n2cnc3cncnc32)[C@H](O)[C@@H]1O,6.22
2,O=P(O)(O)OP(=O)(O)OP(=O)(O)OP(=O)(O)OC[C@H]1O[C@@H](n2cnc3cncnc32)[C@H](O)[C@@H]1O,5.85
3,O=P(O)(O)OP(=O)(O)OP(=O)(O)OP(=O)(O)OP(=O)(O)OC[C@H]1O[C@@H](n2cnc3cncnc32)[C@H](O)[C@@H]1O,5.96
